Source: paper PMC6193938, “Characterization of a novel AICARFT inhibitor which potently elevates ZMP and has anti-tumor activity in murine models” (Scientific Reports, 2018)
Entries after “also recorded” stand apart in the source; their conditions may differ.

Key:
TBK1 = biological target: T1, TBK1 (Homo sapiens, UniProt Q9UHD2); experiment: CEREP protein kinase assay; assay type: biochemical
T1 construct: purchased CEREP Panlabs (Eurofins)
T1 sequence (Q9UHD2 1-729): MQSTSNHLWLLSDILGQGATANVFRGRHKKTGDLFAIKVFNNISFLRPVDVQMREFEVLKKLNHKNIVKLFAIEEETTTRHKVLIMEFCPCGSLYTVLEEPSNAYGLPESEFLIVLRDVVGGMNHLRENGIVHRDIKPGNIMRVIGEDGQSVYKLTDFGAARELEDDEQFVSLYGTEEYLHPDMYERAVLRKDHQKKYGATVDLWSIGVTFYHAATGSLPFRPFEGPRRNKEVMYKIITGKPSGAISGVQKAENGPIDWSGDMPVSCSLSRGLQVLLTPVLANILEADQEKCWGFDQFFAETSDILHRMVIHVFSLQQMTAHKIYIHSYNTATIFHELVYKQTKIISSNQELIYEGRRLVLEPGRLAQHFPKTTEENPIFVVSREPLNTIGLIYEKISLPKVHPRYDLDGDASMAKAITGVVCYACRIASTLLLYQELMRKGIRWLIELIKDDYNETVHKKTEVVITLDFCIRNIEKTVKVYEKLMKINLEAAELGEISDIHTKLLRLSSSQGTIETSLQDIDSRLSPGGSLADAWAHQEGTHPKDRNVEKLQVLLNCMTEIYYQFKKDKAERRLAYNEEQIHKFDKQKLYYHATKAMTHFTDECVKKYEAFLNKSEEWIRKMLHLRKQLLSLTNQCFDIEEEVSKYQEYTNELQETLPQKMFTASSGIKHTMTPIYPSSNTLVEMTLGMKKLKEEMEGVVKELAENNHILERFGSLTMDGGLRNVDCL

WEE1 = biological target: T2, WEE1 (Homo sapiens, UniProt P30291); experiment: CEREP protein kinase assay; assay type: biochemical
T2 construct: purchased CEREP Panlabs (Eurofins)

A9 cells = experiment: MS detection of ZMP and dUMP in cultured cells; assay type: cell-based, murine
Description: To mimic human plasma levels, low folate media is traditionally used in which the folate comes only from the defined fetal bovine serum. […] Because LSN3213128 would be dosed in mice on normal diet, cell line screening was performed under standard tissue culture conditions to identify cell lines sensitive to treatment under high folate conditions. In order to compare tissue culture values with tumor levels, an average 4 pL cell volume[36] was used to calculate cellular ZMP concentrations. In MDA-MB-231[…] cells using regular RPMI, the peak intracellular ZMP levels are about 770 μM while in the salvage deficient A9 cells ZMP is 6,500 μM. […] It is not surprising that in vivo in mice on standard chow where folate plasma levels are >10-fold lower than tissue culture that tumor ZMP levels are also lower. […] ZMP was detected in cultured cells via mass spec analysis. Cells were plated in 96-well plates at 25,000 cells per well in 100 μL with either high or low folate RPMI media and incubated overnight at 37 °C with 5% CO2. Cells were treated with inhibitor compounds for 16 hours, 0.5% DMSO final concentration. Growth media was decanted and cells were lysed for 10 min at room temperature with 50 μL per well of 1x Sure Fire Lysis buffer (Perkin Elmer, SureFire kit component). […] Samples were sealed, vortexed for 5 minutes, and placed in the refrigerator for at least 30 minutes. The samples were centrifuged at 4 °C for 10 minutes at 16,600 g. 75 μL of the aqueous layer were transferred to a clean 96-well plate and seal prior to analysis. The LC-MS method utilizes a Shimadzu Prominence 20 A HPLC system connected to an AB Sciex 5500TM or an AB Sciex 6500TM triple quadrupole mass spectrometer. […] […] dUMP were detected using positive ion TurboIonSpray® multiple reaction monitoring mode and the data were processed with AB Sciex MultiQuantTM. Back-calculated ZMP concentrations were fit to a four-parameter logistic equation using ACTIVITYBASE 4.0 to determine EC50 values relative to the maximum observed metabolite levels.

TRKA = biological target: T3, TRKA (Homo sapiens, UniProt P04629); experiment: CEREP protein kinase assay; assay type: biochemical
T3 construct: purchased CEREP Panlabs (Eurofins)

MDA-MB-231met2 xenograft = experiment: Antitumor efficacy and tumor metabolites, mouse xenograft; assay type: in vivo; conditions: after 22 days of dosing
FER = biological target: T4, FER (Homo sapiens, UniProt P16591); experiment: CEREP protein kinase assay; assay type: biochemical
T4 construct: purchased CEREP Panlabs (Eurofins)

CDK7 = biological target: T5, CDK7 (Homo sapiens, UniProt P50613); experiment: CEREP protein kinase assay; assay type: biochemical
T5 construct: purchased CEREP Panlabs (Eurofins)
T5 sequence (P50613 whole entry): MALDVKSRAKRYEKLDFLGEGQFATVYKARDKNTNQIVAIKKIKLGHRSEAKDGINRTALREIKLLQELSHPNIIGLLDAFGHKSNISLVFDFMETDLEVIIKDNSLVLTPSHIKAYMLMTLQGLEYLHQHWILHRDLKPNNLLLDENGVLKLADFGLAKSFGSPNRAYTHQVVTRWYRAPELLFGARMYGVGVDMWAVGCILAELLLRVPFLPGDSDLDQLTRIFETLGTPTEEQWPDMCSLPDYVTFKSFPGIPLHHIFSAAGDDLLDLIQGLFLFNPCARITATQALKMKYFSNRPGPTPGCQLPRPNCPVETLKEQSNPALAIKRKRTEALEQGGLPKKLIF
T5 sequence (P51946 whole entry partner): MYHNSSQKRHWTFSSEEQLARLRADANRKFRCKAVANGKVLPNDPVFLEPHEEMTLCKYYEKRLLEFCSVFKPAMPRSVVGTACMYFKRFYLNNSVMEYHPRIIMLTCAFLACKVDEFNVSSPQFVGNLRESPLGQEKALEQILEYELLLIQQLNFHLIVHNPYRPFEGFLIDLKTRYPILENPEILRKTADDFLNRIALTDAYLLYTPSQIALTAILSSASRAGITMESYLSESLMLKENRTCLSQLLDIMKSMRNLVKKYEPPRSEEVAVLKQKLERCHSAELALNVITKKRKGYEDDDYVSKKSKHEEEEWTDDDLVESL
T5 sequence (P51948 whole entry partner): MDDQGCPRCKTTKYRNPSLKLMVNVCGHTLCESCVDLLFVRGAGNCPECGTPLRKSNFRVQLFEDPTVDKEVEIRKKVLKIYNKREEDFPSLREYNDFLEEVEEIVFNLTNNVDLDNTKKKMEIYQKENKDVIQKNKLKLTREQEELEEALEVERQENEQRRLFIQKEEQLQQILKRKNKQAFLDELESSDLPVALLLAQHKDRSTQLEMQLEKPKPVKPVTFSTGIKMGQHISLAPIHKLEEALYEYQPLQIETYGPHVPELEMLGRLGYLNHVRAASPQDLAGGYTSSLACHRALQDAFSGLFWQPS

T3 sequence (P04629 33-796): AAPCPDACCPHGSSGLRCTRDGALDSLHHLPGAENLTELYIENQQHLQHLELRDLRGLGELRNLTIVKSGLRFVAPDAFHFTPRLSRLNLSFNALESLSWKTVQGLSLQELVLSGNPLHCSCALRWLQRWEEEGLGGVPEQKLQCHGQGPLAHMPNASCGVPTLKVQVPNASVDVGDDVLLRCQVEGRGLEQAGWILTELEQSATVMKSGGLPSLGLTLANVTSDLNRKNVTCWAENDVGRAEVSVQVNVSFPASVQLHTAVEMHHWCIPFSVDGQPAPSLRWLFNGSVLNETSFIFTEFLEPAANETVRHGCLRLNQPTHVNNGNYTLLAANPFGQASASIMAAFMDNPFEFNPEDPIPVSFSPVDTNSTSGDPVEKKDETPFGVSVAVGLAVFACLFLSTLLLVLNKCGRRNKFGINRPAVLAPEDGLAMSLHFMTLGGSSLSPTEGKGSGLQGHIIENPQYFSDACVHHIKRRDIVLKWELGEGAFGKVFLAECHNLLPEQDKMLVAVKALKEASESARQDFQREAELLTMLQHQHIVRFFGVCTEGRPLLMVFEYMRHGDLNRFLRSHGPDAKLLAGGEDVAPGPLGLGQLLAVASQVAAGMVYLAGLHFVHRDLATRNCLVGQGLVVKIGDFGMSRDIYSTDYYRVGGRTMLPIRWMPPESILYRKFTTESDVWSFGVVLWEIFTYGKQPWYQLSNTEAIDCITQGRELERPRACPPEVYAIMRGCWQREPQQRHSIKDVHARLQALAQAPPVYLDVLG
T2 sequence (P30291 whole entry): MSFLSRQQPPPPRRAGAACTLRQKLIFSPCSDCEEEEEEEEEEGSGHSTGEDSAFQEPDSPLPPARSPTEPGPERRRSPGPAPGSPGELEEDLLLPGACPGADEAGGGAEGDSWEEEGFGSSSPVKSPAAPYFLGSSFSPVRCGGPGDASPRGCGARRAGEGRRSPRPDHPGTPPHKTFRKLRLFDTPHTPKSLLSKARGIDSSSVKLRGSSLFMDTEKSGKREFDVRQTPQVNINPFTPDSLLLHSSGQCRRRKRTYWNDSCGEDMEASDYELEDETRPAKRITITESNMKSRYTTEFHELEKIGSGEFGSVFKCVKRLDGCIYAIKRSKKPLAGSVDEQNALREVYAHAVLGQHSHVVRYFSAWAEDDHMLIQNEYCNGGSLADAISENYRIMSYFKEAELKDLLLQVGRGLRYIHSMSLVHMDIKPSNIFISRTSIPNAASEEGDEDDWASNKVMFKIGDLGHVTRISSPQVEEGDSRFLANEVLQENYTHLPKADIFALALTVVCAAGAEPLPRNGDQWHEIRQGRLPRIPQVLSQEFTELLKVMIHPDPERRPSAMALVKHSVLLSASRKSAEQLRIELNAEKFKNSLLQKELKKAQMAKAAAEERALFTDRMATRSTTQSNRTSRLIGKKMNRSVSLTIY
T4 sequence (P16591 whole entry): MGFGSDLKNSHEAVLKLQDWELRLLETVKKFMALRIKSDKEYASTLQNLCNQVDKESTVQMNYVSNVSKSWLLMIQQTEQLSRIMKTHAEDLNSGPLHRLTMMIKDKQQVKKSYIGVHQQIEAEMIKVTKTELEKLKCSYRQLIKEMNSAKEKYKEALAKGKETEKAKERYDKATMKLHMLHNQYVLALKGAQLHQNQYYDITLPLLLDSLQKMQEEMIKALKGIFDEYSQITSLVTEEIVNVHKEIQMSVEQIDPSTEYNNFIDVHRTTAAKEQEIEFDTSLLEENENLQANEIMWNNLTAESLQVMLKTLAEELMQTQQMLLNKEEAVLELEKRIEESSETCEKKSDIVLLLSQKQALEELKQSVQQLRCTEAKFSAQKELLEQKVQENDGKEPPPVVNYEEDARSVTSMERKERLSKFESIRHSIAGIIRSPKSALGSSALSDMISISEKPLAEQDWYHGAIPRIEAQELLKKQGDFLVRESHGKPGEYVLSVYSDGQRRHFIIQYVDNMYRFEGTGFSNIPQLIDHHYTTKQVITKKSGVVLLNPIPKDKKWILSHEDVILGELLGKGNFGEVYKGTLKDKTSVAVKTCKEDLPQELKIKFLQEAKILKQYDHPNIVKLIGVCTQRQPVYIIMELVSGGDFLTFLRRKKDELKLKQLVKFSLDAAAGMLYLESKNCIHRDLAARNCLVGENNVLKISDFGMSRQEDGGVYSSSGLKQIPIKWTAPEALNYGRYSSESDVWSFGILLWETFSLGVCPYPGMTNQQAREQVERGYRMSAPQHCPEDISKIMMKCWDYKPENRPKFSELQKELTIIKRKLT

SMILES: O=c1[nH]ccc2cc(F)c(NS(=O)(=O)c3ccc(N4CC[C@@H](O)C4)s3)cc12 [LSN3213128, N-(6-Fluoro-1-oxo-1,2-dihydroisoquinolin-7-yl)-5-[(3R)-3-hydroxypyrrolidin-1-yl]thiophene-2-sulfonamide]
- inhibition at 0.2 µM (TBK1; @ 0.2 uM): -3.62%
- inhibition at 2 µM (TBK1; @ 2 uM): 13.1%
- inhibition at 20 µM (TBK1; @ 20 uM): 11%
- inhibition at 0.2 µM (WEE1; @ 0.2 uM): 1.15%
- inhibition at 2 µM (WEE1; @ 2 uM): 7.31%
- inhibition at 20 µM (WEE1; @ 20 uM): 14.2%
- dUMP levels in tissue culture (A9 cells; A9): No changes; also recorded: does not alter
- peak intracellular ZMP levels (A9 cells; A9 cells, calculated with 4 pL cell volume): 6,500 μM
- inhibition at 0.2 µM (TRKA; @ 0.2 uM): -1.15%
- inhibition at 2 µM (TRKA; @ 2 uM): 8.27%
- inhibition at 20 µM (TRKA; @ 20 uM): 10.1%
- tumor ZTP (MDA-MB-231met2 xenograft; MDA-MB-231met2 tumors): No detectable changes
- tumor ZMP levels (MDA-MB-231met2 xenograft; MDA-MB-231 met2 tumors, 30 and 60 mg/kg): dramatically elevated
- inhibition at 0.2 µM (FER; @ 0.2 uM): 3.36%
- inhibition at 2 µM (FER; @ 2 uM): 18%
- inhibition at 20 µM (FER; @ 20 uM): 11.1%
- inhibition at 0.2 µM (CDK7; @ 0.2 uM): -17%
- inhibition at 2 µM (CDK7; @ 2 uM): 2.91%
- inhibition at 20 µM (CDK7; @ 20 uM): 15%
